Structures can show the parent of a compound that is named as a salt.

One series relates to KCNQ potassium channel. The experiment in a line: Whole-cell voltage-clamp recording in CHO-K1 cells transfected with KCNQ plasmid. It counts as cell-based. To be noted: for I/I0: current enhancement factor, −10 mV testing voltage, compound concentration 10 μM, >1 activating, <1 inhibiting; for ΔV1/2: shift of V1/2, negative sign = left-ward shift of current activation curve, compound 10 μM, CHO-K1 cells. The protocol: The culture medium for Chinese hamster oocytes (CHO-K1) (Culture Collection of Chinese Academy of Sciences): 50/50 DMEM/F-12 (Cellgro, Manassas, Va.), added with 10% fetal bovine serum (FBS) (Gibco, Australia) and 2 mM L-glutamic acid (Invitrogen). […] Lipofectamine 2000™ agent (Invitrogen) was used for Transfection according to the protocol thereof. GFP (green fluorescent protein) was cotransfected to be used as a indication of successful converting into KCNQ plasmid.
Whole-cell voltage-clamp recording was performed on an Axopatch-200B amplifier (Molecular Devices, Sunnyvale, Calif.) at room temperature. The electrode was made by drawing borosilicate glass capillary (World Precision Instruments, Sarasota, Fla.). The electric resistance of the electrode filled with an intracellular fluid is 3 to 5 MΩ. […] During the recording, an extracellular fluid was continuously perfused by using a BPS perfusion system (ALA Scientific Instruments, Westburg, N.Y.). The composition of the extracellular fluid (1 L) was as follows: 140 mM NaCl(Sigma), 5 mM KCl(Sigma), 2 mM CaCl2(Sigma), 1.5 mM MgCl2(Sigma), 10 mM HEPES(Sigma) and 10 mM glucose(Sigma) (pH was adjusted to 7.4 with NaOH). […] Series resistors compensate 60 to 80%. Up to date, multivoltage scheme was generally adopted, wherein the clamp voltage was set at −80 mV, stimulating voltage was a gradient voltage from −90 mV to 60 mV with interval of 10 mV, and the stimulating time for each voltage was 2000 ms.
V1/2 is the voltage at which 50% of cells were activated, ΔV1/2 is the shift amount of V1/2, negative sign (−) represents a left-ward shift of the current activation curve. I/I0 represents the current enhancement factor, wherein, I0 is the maximum induced current produced under stimulation of −10 mV testing voltage after administrating cells with blank extracellular fluid, I is the maximum induced current produced under stimulation of −10 mV testing voltage after administrating the drug (the compound concentration was 10 μM), I/I0>1 represents activating activity, and I/I0<1 represents inhibiting activity. N is the number of tested cells. NT represents non-tested.

The target of series [1] is T1, KCNQ2 homotetramer channel (Homo sapiens, UniProt O43526).
T1 construct: expressed in transfected cells; host or cells: CHO-K1
T1 sequence (O43526 whole entry): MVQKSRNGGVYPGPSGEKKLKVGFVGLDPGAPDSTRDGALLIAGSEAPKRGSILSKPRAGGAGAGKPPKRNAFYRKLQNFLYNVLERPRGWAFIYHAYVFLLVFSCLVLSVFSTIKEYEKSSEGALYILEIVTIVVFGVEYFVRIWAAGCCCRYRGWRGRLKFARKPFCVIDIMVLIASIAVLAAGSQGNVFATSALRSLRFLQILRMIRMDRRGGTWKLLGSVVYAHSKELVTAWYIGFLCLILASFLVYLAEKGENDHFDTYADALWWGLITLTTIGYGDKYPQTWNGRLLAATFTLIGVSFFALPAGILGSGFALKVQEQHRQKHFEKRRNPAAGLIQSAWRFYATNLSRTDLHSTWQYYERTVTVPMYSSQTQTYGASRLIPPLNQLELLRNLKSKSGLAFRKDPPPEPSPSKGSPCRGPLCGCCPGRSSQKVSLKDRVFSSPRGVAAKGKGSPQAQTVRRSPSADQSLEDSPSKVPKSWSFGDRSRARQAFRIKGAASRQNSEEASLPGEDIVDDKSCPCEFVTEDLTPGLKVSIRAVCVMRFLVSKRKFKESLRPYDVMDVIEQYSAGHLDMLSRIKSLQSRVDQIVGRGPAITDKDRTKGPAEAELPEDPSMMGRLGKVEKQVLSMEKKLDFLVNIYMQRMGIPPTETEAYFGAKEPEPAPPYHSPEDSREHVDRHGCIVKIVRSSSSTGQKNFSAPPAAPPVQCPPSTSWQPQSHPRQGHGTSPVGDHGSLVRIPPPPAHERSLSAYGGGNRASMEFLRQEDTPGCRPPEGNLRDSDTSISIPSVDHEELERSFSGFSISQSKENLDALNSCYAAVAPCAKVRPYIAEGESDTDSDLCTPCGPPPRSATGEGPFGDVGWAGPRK
Nature of the series: KCNQ2 channel dose-response curve in CHO-K1 cells transfected with KCNQ2 plasmid. It counts as cell-based. On the procedure:
The culture medium for Chinese hamster oocytes (CHO-K1) (Culture Collection of Chinese Academy of Sciences): 50/50 DMEM/F-12 (Cellgro, Manassas, Va.), added with 10% fetal bovine serum (FBS) (Gibco, Australia) and 2 mM L-glutamic acid (Invitrogen). Expression of KCNQ channels: 24 h before transfection, CHO-K1 spreaded on a dish with a diameter of 60 mm. Lipofectamine 2000™ agent (Invitrogen) was used for Transfection according to the protocol thereof. GFP (green fluorescent protein) was cotransfected to be used as a indication of successful converting into KCNQ plasmid.
Whole-cell voltage-clamp recording was performed on an Axopatch-200B amplifier (Molecular Devices, Sunnyvale, Calif.) at room temperature. The electrode was made by drawing borosilicate glass capillary (World Precision Instruments, Sarasota, Fla.). The electric resistance of the electrode filled with an intracellular fluid is 3 to 5 MΩ. The composition of the intracellular fluid (1 L) was as follows: 145 mM KCl(Sigma), 1 mM MgCl2(Sigma), 5 mM EGTA(Sigma), 10 mM HEPES(Sigma) and 5 mM MgATP(Sigma) (pH was adjusted to 7.3 with KOH). During the recording, an extracellular fluid was continuously perfused by using a BPS perfusion system (ALA Scientific Instruments, Westburg, N.Y.). The composition of the extracellular fluid (1 L) was as follows: 140 mM NaCl(Sigma), 5 mM KCl(Sigma), 2 mM CaCl2(Sigma), 1.5 mM MgCl2(Sigma), 10 mM HEPES(Sigma) and 10 mM glucose(Sigma) (pH was adjusted to 7.4 with NaOH). Electric signal was filtered at 1 kHz and further converted into digital signal by using pClamp 9.2 software (Molecular Devices, Sunnyvale, Calif.) in DigiData 1322A. Series resistors compensate 60 to 80%. Up to date, multivoltage scheme was generally adopted, wherein the clamp voltage was set at −80 mV, stimulating voltage was a gradient voltage from −90 mV to 60 mV with interval of 10 mV, and the stimulating time for each voltage was 2000 ms.
The experimental procedure was the same as that in Electrophysiological Example 1. […]

Series [2] relates to convulsive mice induce by MES. Nature of the series: MES (maximum electroshock) induced convulsion model, oral perfusion. It counts as in vivo, KM mice. To be noted: Mus musculus, 0.5 h; mice, oral perfusion, MES 30 mins after administration; read-out: ED50 (50% effective dose). From the text:
YLS-9A model physiological pharmaceutical electronic stimulator was used in the experiment to induce convulsion of mice, and specific parameters were set as follows: configuration 8, stimulating voltage: 160V, period of stimulation: 5.4 sec. Healthy KM mice (SPF level, male, body weight: 18 to 22 g) were selected for the experiment. After the ear tip of the mice was sufficiently wetted with physiological saline, the mice was electrically stimulated once with ear clip electrode, and tonic hind-limb seizure was deemed as indication of convulsion. The mice were screened one day before the experiment to weed out the dead mice and the ones without generalized tonic seizure. The qualified mice were caged randomly with access to water at liberty. Before the experiment started, the mice were fasted for 8 h.
The compounds to be tested were freshly formulated on the day of experiment. RTG hydrochloride was dissolved with ultrapure water to obtain a solution with desired concentration. K41.HCl and K43.HCl were formulated with 5% DMSO+95% of 1% Tween80, that is, a proper amount of the compound to be tested was weighted and, first, sufficiently dissolved in 5% DMSO, and then added with a desire volume of 1% Tween80 to be sufficiently suspended to form a suspension with a certain drug concentration. The mice screened one day before were randomly grouped with each group having 10 mice, marked, weighted and then administered with the compound to be tested or solvent (5% DMSO+95% (1% Tween 80)) by oral perfusion with administered volume of 0.2 ml/10 g. The dose range for each compound was 1 to 56 mg/kg for RTG, 1 to 40 mg/kg for K41.HCl, and 0.5 to 4 mg/kg for K43.HCl. 30 mins after administration, MES experiment was performed and the experimental parameters were the same as the above. The number of mice with generalized tonic-clonic convulsion in each group was recorded, the protection rate of each of the compounds to be tested on convulsive mice induce by MES was calculated and dose-response curve for each compound was plotted. The dose-response curve for each compound was obtained according to the analysis of Graphpad Prism 5 software, as shown in FIG. 3.

Series [3] can be described thus: Rotarod experiment, motor coordination ability (acute neurotoxicity). Type of series: in vivo, KM mice. To be noted: both sexes, KM, mouse, in vivo; mice, oral perfusion, Rotarod 30 mins after administration; read-out: TD50 (50% acute neurotoxicity dose). The protocol:
(§1) YLS-4C Rotarod system was used in the experiment, wherein the diameter of the rod was 3 cm and the rotate speed was set at 6 rpm. Healthy KM mice (SPF level) were selected, wherein male and female were equal, the body weight was 18 to 22 g. One day before experiment, the mice were place on the rotarod for training and screening. The tail tip of mice was held to make them creep on the rotarod during the training. […] The mice that jumped on the rotarod or griped the rotarod were weed out. In addition, three time periods were set with 1 min for each. […] The qualified mice were randomly caged according to the gender, and allowed to eat and drink freely.
(§2) On the day of the experiment, each compound to be tested was freshly formulated by the same method as described in MES experiment. If the compound was not sufficiently suspended, the suspension was further mixed by ultrasonication for 20 min so as to make the compound sufficiently suspended. […] 30 mins after administration, Rotarod experiment was performed and the experiment parameters were the same as the above. The number of mice that fell off from the rorarod was recorded, and the influence of each compound on motor coordination ability of mice was analyzed. The curve for dose of each compound verse motor deficit (percentage) of mice for each compound was obtained according to the analysis of Graphpad Prism 5 software and was shown in FIG. 4.

Series [4] concerns motor coordination ability of mice. The description is as above. Type of series: in vivo, KM mice. The note with it: TD50 Rotarod / ED50 MES. The protocol:
as §1, §2
In general terms: In the rotarod test animals must keep their balance on a rotating rod.

The conditions of series [5]: data from FDA Pharmacology Review(s), Potiga tablets; cited from earlier work.
Series [6] is described as follows: Stability of solution exposed to air. To be noted: solution exposed to air (aqueous solution for RTG hydrochloride).

Take `C#CCN(Cc1ccc(F)cc1)c1ccc(NC(=O)OC)cc1C` [K40•HCl]: in the series on KCNQ potassium channel, the I/I0 came out at 1.40 ± 0.04 and the ΔV1/2 was −3.42 ± 1.54 mV.

For `C#CCN(Cc1ccc(F)cc1)c1ccc(NC(=O)OC)c(C#N)c1` [K42•HCl], in the series on KCNQ potassium channel, the I/I0 was found to be 0.52 ± 0.01 and the ΔV1/2 is listed as −5.2 ± 0.7 mV.

For the molecule `C#CCN(Cc1ccc(F)cc1)c1c(C)cc(NC(=O)OC)cc1C` [K44•HCl], in the series on KCNQ potassium channel, the I/I0 is 0.72 ± 0.05 and the ΔV1/2 is 13.47 ± 2.13 mV.

As for `C#CCN(Cc1ccc(F)cc1)c1ccc(NC(=O)OC)cc1OC` [K45•HCl], in the series with KCNQ potassium channel, the I/I0 turned out to be 0.57 ± 0.01 and the ΔV1/2 is on record as −5.1 ± 0.9 mV.

In the case of `C#CCN(Cc1ccc(F)cc1)c1ccc(NC(=O)OC)c(OC)c1` [K46•HCl], in the series on KCNQ potassium channel, the I/I0 was 1.52 ± 0.55 and the ΔV1/2 is listed as −6.5 ± 2.1 mV.

For the molecule `[2H]C([2H])(C#C)N(Cc1ccc(F)cc1)c1ccc(NC(=S)OC)cc1` [K47•HCl, methyl 4-(N-parafluorobenzyl-N-3,3-dideuteriumpropargyl-amino)phenylaminothioformate], in the series on KCNQ potassium channel, the I/I0 is on record as 2.10 ± 0.08 and the ΔV1/2 is −18.10 ± 0.03 mV.

`C#CCN(Cc1ccc(F)cc1)c1ccc(NC(=O)OC)c(OC(F)(F)F)c1` [K48•HCl]: in the series with KCNQ potassium channel, the I/I0 is 1.24 ± 0.16 and the ΔV1/2 was −13.2 ± 1.5 mV.

`C#CCN(Cc1ccc(F)cc1)c1ccc(NC(=S)OC)cc1` [K49•HCl, methyl 4-(N-parafluorobenzyl-N-propargyl-amino) phenylaminothioformate]: in the series with KCNQ potassium channel, the I/I0 is listed as 4.4 ± 1.6 and the ΔV1/2 was −22 ± 2.5 mV.

Take `C#CCN(Cc1ccc(F)cc1)c1ccc(NC(=O)N(C)OC)cc1` [K51•HCl]: in the series with KCNQ potassium channel, the I/I0 was found to be 1.61 ± 0.08 and the ΔV1/2 is recorded as −8.89 ± 1.12 mV.

Turning to `C#CCN(Cc1ccc(F)cc1)c1ccc(NC(=O)COC)cc1` [K52•HCl, N-[4-(N-p-fluorobenzyl-N-propargyl-amino)-phenyl]-2-methoxyacetamide], in the series on KCNQ potassium channel, the I/I0 worked out at 5.80 ± 0.52 and the ΔV1/2 is recorded as −10.93 ± 1.86 mV.

Regarding `C#CCN(Cc1ccc(F)cc1)c1ccc(NC(=O)COCC)cc1` [K53•HCl], in the series with KCNQ potassium channel, the I/I0 is 7.31 ± 1.09 and the ΔV1/2 is reported as −14.81 ± 0.92 mV.

Consider `C#CCN(Cc1ccc(F)cc1)c1ccc(NC(=O)C2CCCO2)cc1` (stereo not shown) [K54•HCl], for which, in the series with KCNQ potassium channel, the I/I0 is listed as 7.55 ± 1.92 and the ΔV1/2 is −30.9 ± 4.1 mV.

Turning to `C#CCN(Cc1ccc(F)cc1)c1ccc(NC(=O)CN(C)C)cc1` [K55•HCl], in the series on KCNQ potassium channel, the I/I0 worked out at 1.72 ± 0.14 and the ΔV1/2 is recorded as −10.76 ± 4.51 mV.

As for `C#CCN(Cc1ccc(F)cc1)c1ccc(NC(=O)CNC(C)=O)cc1` [K56•HCl], in the series on KCNQ potassium channel, the I/I0 is 1.10 ± 0.10 and the ΔV1/2 is reported as −2.0 ± 1.3 mV.

As to `C#CCN(Cc1ccc(F)cc1)c1ccc(NC(=O)CC(=O)OC)cc1` [K57•HCl], in the series on KCNQ potassium channel, the I/I0 was found to be 8.13 ± 2.57 and the ΔV1/2 is −31.55 ± 0.86 mV.

In the case of `C#CCN(Cc1ccc(F)cc1)c1ccc(NC(=O)C2CCC(F)(F)CC2)cc1` [K58•HCl], in the series with KCNQ potassium channel, the I/I0 is given as 1.78 ± 0.19 and the ΔV1/2 is −33.68 ± 1.05 mV.

For `CCOC(=O)Nc1ccc(NCc2ccc(F)cc2)cc1N` [RTG, retigabine, reference compound], the EC50 in series [1] amounted to 1320 nM. The ED50 in series [2] was determined as 21.8 mg/kg. In addition, in series [3], the TD50 at 30 min amounted to 74.2 mg/kg. Moreover, the “P.I (Protective index)=TD50/ED50” value in series [4] came out at 3.40. The reported lethal dose in series [5] is 100 mg/kg. In series [6], the “stability of solution exposed to air” value is “quickly become blue and insoluble precipitate is formed”.

Turning to “methyl 4-(N-parafluorobenzyl-N-3-cyclopropyl propargyl-amino) phenylaminothioformate [K59•HCl]”, in the series with KCNQ potassium channel, the I/I0 was found to be 1.01 ± 0.13 and the ΔV1/2 is −0.14 ± 2.33 mV.

For orientation: EC50 means the midpoint of the concentration-response curve. Higher therefore signals weaker potency. What is called ED50 is the dose that gives a 50% effect, or the effect in half of the subjects. By TD50 is commonly meant the 50% point of the dose-response relation for the toxic effect studied.
